The record followed here is ChEMBL document CHEMBL3797030, “Anti-hepatitis C Virus Natural Product from a Fungus, Penicillium herquei” (J Nat Prod, 2016).

The test system of this experiment is Hepatitis C virus. Nature of the experiment: Antiviral activity against Hepatitis C virus J6/JFH1 infected in human Huh7.5.1 cells assessed as reduction in amount of core HCV protein after 72 hrs by focus formation assay. The following applies: J6/JFH1, Huh-7, 72 h. Type of experiment: functional, organism-based, Hepacivirus hominis.

As usually defined, the IC50 is the concentration that inhibits the measured activity by half.

Take `C[C@H]1CCN2C[C@]34Cc5c([nH]c6ccccc56)C(C)(C)[C@@H]3C[C@]12C(=O)N4`: the IC50 is more than 40 µM.
In the case of `COC1=N[C@]23CN4CC[C@@](C)(O)[C@]14C[C@H]2C(C)(C)[C@@]1(C3)C(=O)Nc2c1ccc1c2C(=O)CC(C)(C)O1`, the IC50 is more than 40 µM.
Take `COc1c(O)c2c3c(c1O)C(=O)[C@@]1(O)C(=C3C(C)=CC2=O)O[C@H](C)C1(C)C`: the IC50 is more than 40 µM.
With `C[C@H]1CCN2CC34Cc5c([nH]c6c7c(ccc56)OC(C)(C)CC7=O)C(C)(C)[C@@H]3CC12C(=O)N4` (some centres not stated), the IC50 came to 5.1 µM.
As for `COC1=C(O)C2=C3O[C@H](C)C(C)(C)[C@]3(O)C(=O)c3c(C)cc(O)c(c32)C1=O`, the IC50 was more than 40 µM.
In the case of `C[C@H]1CCN2C[C@]34C[C@@]5(C(=O)Nc6c5ccc5c6C(=O)CC(C)(C)O5)C(C)(C)[C@@H]3C[C@]12C(=O)N4`, the IC50 is more than 40 µM.
In the case of `COc1c(O)c2c3c(c1O)C(=O)[C@@]1(O)C(=C3C(C)=C(O)C2=O)O[C@@H](C)C1(C)C`, the IC50 was more than 40 µM.
